Assays:
Assay type in all cases: cell-based
[1] = biological target: T1, ATP-dependent translocase ABCB1 (Homo sapiens, UniProt P08183); assay: Inhibition of human MDR1 expressed in mouse L5178 cells assessed as fluorescence activity at 23 uM by rhodamine 123 exclusion test; conditions: l5178, 23 µM
[2] = biological target: T1, ATP-dependent translocase ABCB1; assay: Inhibition of human MDR1 expressed in mouse L5178 cells assessed as fluorescence activity at 112 uM by rhodamine 123 exclusion test; conditions: l5178, 112 µM
[3] = biological target: T1, ATP-dependent translocase ABCB1; assay: Inhibition of human MDR1 expressed in mouse L5178 cells assessed as fluorescence activity ratio at 11.2 uM by rhodamine 123 exclusion test relative to wild type mouse L5178 cells; conditions: l5178, 11.2 µM
[4] = biological target: T1, ATP-dependent translocase ABCB1; assay: Inhibition of human MDR1 expressed in mouse L5178 cells assessed as fluorescence activity ratio at 112 uM by rhodamine 123 exclusion test relative to wild type mouse L5178 cells; conditions: l5178, 112 µM
[5] = biological target: T1, ATP-dependent translocase ABCB1; assay: Inhibition of human MDR1 expressed in mouse L5178 cells assessed as fluorescence activity at 11.2 uM by rhodamine 123 exclusion test; conditions: l5178, 11.2 µM

T1 sequence (P08183 whole entry): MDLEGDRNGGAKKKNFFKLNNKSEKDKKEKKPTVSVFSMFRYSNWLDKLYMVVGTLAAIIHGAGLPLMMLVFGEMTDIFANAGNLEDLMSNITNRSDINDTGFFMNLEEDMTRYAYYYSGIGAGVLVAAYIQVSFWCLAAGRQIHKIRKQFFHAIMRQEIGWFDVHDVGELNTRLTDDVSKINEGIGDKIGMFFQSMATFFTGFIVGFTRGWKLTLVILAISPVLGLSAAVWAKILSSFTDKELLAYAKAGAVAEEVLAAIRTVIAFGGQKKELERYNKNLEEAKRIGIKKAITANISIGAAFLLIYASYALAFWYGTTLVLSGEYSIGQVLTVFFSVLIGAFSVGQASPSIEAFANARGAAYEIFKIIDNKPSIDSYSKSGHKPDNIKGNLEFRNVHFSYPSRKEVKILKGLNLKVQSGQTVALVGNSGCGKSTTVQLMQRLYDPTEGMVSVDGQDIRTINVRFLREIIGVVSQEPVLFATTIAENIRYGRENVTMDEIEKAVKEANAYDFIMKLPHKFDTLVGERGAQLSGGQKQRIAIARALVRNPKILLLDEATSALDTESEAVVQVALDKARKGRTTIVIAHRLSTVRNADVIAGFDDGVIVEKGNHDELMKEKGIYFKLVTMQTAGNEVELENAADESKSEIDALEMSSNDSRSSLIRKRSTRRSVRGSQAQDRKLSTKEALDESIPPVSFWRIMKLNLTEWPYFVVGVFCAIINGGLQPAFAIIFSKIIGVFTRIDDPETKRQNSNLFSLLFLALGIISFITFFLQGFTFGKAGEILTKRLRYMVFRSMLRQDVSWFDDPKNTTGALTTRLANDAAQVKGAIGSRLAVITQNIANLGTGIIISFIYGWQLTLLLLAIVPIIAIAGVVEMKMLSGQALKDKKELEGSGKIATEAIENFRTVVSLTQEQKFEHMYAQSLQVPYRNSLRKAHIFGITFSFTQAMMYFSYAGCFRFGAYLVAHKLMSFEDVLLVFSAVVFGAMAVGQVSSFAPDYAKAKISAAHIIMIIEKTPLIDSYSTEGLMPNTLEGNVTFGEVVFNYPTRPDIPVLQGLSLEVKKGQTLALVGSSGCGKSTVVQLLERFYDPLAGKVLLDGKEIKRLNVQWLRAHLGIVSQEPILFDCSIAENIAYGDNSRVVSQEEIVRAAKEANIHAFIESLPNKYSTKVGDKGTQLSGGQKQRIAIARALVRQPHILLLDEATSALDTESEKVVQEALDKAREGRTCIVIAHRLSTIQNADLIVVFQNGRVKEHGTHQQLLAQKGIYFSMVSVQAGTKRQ

| Compound | Flu intensity [1] | Flu intensity [2] | Ratio [3] | Ratio [4] | Flu intensity [5] |
| --- | --- | --- | --- | --- | --- |
| COc1ccc(CCN(C)CCCC(C#N)(c2ccc(OC)c(OC)c2)C(C)C)cc1OC (stereo not drawn) | 158.9 | – | – | – | – |
| C=C1[C@H](OC(C)=O)[C@H]2[C@@H](OC(=O)c3ccccc3)[C@@H](C)C[C@]2(O)C(=O)[C@@H](C)/C=C/C(C)(C)C(=O)[C@H](OC(C)=O)[C@H]1OC(C)=O (relative stereo) | – | 277.08 | 12.29 | 22.92 | 148.64 |
| C=C1[C@H](OC(C)=O)[C@@H](OC(C)=O)[C@@H](OC(C)=O)C(C)(C)/C=C/[C@H](C)C(=O)[C@@]2(OC(C)=O)C[C@H](C)[C@H](OC(=O)c3ccccc3)[C@@H]2[C@H]1OC(C)=O (relative stereo) | – | 217.81 | 2.6 | 18.02 | 31.46 |
| C=C1[C@H](OC(C)=O)[C@@H](OC(C)=O)[C@@H](OC(C)=O)C(C)(C)/C=C/[C@H](C)C(=O)[C@@]2(OC(C)=O)C[C@H](C)[C@H](OC(C)=O)[C@@H]2[C@H]1OC(=O)c1ccccc1 (relative stereo) | – | 354.21 | 2.79 | 29.29 | 33.71 |
